According to ChEMBL document CHEMBL1150000, “Purine 2, 3-acyclonucleosides: Improved synthesis and antiparasitic actimity” (Bioorg Med Chem Lett, 1995):
Activity calls are given as the source filed them. No cut-off for these calls is given here.

Legend:
[1] = test system: Leishmania donovani; test: In vitro inhibitory activity against Leishmania donovani; Inactive; assay type: functional, organism-based
[2] = test system: Trypanosoma cruzi; test: In vitro inhibitory activity against growth of Trypanosoma cruzi at a concentration of 30 uM; 20-40%; assay type: functional; settings: read-out: GI
[3] = test system: Trypanosoma brucei; test: In vitro inhibitory activity against Trypanosoma brucei; assay type: functional, organism-based
[4] = test system: Trypanosoma brucei; test: In vitro inhibitory activity against Trypanosoma brucei; Inactive; assay type: functional, organism-based

Compound	Activity [1]	inhibition of growth at 30 µM [2] [%]	IC50 [3] [µM]	IC50 [4] [µM]
Nc1ncnc2c1ncn2C(CO)OC(CO)CCl (stereo unspecified)	inactive	40	–	–
CC(=O)OCC(CO)OC(COC(C)=O)n1cnc2c(N)ncnc21 (stereo unspecified)	inactive	–	7	–
CC(=O)OCCSCC(COC(C)=O)OC(COC(C)=O)n1cnc2c(N)ncnc21 (stereo unspecified)	inactive	–	5.3	–
OCC(CO)OC(CO)n1cnc2c(O)ncnc21 (stereo unspecified)	inactive	–	–	≥ 100
Nc1ncnc2c1ncn2C(CO)OC(CO)CSCCO (stereo unspecified)	inactive	–	–	≥ 100
CC(=O)OCC(COC(C)=O)OC(COC(C)=O)n1cnc2c(O)ncnc21 (stereo unspecified)	inactive	–	5.4	–
Nc1ncnc2c1ncn2C(CO)OC(CO)CO (stereo unspecified)	inactive	–	–	≥ 100
CCC(CO)OC(CO)n1cnc2c(N)ncnc21 (stereo unspecified)	inactive	40	–	–
